Reference: ChEMBL document CHEMBL1201862, “PubChem BioAssay data set” (2004)
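Tested at 5 concentrations; 48 h exposure; 96-well plates; endpoints linearly interpolated, else capped at highest concentration. Here, GI50 denotes the concentration required for 50% inhibition of growth.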 The source made the active and inactive calls. Rule as the data show it: active = GI50 up to about 1.1 µM and inactive = higher. Non-standard residues stand in square brackets, D forms with d. Residues, ends and D or L forms follow the SMILES beside them. ξ: configuration not given here. ξLac(3-iPr) = CC(C)CC(O)C(=O)O; NMeV = CN[CH](C(=O)O)C(C)C; NMeA = CN[CH](C)C(=O)O; βAla = NCCC(=O)O

How the values were obtained:
Assay in all cases: NCI anticancer screen, dose series, 48 h
SK-MEL-5 = test system: SK-MEL-5
MDA-MB-435 = test system: MDA-MB-435
SK-OV-3 = test system: SK-OV-3
UACC-62 = test system: UACC-62
KM12 = test system: KM12
Malme-3M = test system: Malme-3M
UO-31 = test system: UO-31
MOLT-4 = test system: MOLT-4
MDA-MB-231 = test system: MDA-MB-231
SF-295 = test system: SF-295
BT-549 = test system: BT-549
OVCAR-8 = test system: OVCAR-8
RPMI-8226 = test system: RPMI-8226
DU-145 = test system: DU-145
NCI-H226 = test system: NCI-H226
A549 = test system: A549
NCI-H23 = test system: NCI-H23
SF-268 = test system: SF-268
LOX IMVI = test system: LOX IMVI
PC-3 = test system: PC-3
K562 = test system: K562
SNB-19 = test system: SNB-19
SK-MEL-2 = test system: SK-MEL-2
OVCAR-5 = test system: OVCAR-5
T47D = test system: T47D
A498 = test system: A498
SR = test system: SR
Hs-578T = test system: Hs-578T
ACHN = test system: ACHN
786-0 = test system: 786-0
U-251 = test system: U-251
NCI-H522 = test system: NCI-H522
HCT-116 = test system: HCT-116
CCRF-CEM = test system: CCRF-CEM
HCC 2998 = test system: HCC 2998
HL-60 = test system: HL-60
SF-539 = test system: SF-539
IGROV-1 = test system: IGROV-1
OVCAR-4 = test system: OVCAR-4
HOP-62 = test system: HOP-62
EKVX = test system: EKVX
RXF 393 = test system: RXF 393
CAKI-1 = test system: CAKI-1
SW-620 = test system: SW-620
MCF7 = test system: MCF7
UACC-257 = test system: UACC-257
SNB-75 = test system: SNB-75
TK-10 = test system: TK-10
NCI-H460 = test system: NCI-H460
SN12C = test system: SN12C
OVCAR-3 = test system: OVCAR-3
COLO 205 = test system: COLO 205
HOP-92 = test system: HOP-92
HT-29 = test system: HT-29
M14 = test system: M14
NCI/ADR-RES = test system: NCI/ADR-RES
MDA-N = test system: MDA-N
HCT-15 = test system: HCT-15
SK-MEL-28 = test system: SK-MEL-28
M19-MEL = test system: M19-MEL
DMS-114 = test system: DMS-114
KM-20L2 = test system: KM-20L2
SNB-78 = test system: SNB-78
DLD-1 = test system: DLD-1
LXFL 529 = test system: LXFL 529
DMS-273 = test system: DMS-273

O=C(O)/C=C/C(=O)Nc1cccc2c1-c1ccccc1C2=O
GI50 (SK-MEL-5): 4.39 µM (inactive) | GI50 (MDA-MB-435): 2.85 µM (inactive) | GI50 (SK-OV-3): 22.9 µM (inactive) | GI50 (UACC-62): 6.58 µM (inactive) | GI50 (KM12): 16.9 µM (inactive) | GI50 (Malme-3M): 8.28 µM (inactive) | GI50 (UO-31): 11.8 µM (inactive) | GI50 (MOLT-4): 2.63 µM (inactive) | GI50 (MDA-MB-231): 13.3 µM (inactive) | GI50 (SF-295): 3.57 µM (inactive) | GI50 (BT-549): 16.9 µM (inactive) | GI50 (OVCAR-8): 21.6 µM (inactive) | GI50 (RPMI-8226): 8.81 µM (inactive) | GI50 (DU-145): 10.3 µM (inactive) | GI50 (NCI-H226): 31.2 µM (inactive) | GI50 (A549): 20.9 µM (inactive) | GI50 (NCI-H23): 18.2 µM (inactive) | GI50 (SF-268): 16.3 µM (inactive) | GI50 (LOX IMVI): 8.91 µM (inactive) | GI50 (PC-3): 5.7 µM (inactive) | GI50 (K562): 3.91 µM (inactive) | GI50 (SNB-19): 17.9 µM (inactive) | GI50 (SK-MEL-2): 3.56 µM (inactive) | GI50 (OVCAR-5): > 63.4 µM (inactive) | GI50 (T47D): > 51.5 µM (inactive) | GI50 (A498): 53 µM (inactive) | GI50 (SR): 9.2 µM (inactive) | GI50 (Hs-578T): 3.76 µM (inactive) | GI50 (ACHN): 17.3 µM (inactive) | GI50 (786-0): 9.53 µM (inactive) | GI50 (U-251): 5.27 µM (inactive) | GI50 (NCI-H522): 3.25 µM (inactive) | GI50 (HCT-116): 42.8 µM (inactive) | GI50 (CCRF-CEM): 4.32 µM (inactive) | GI50 (HCC 2998): 22.2 µM (inactive) | GI50 (HL-60): 1.28 µM (inactive) | GI50 (SF-539): 3.46 µM (inactive) | GI50 (IGROV-1): 4.75 µM (inactive) | GI50 (OVCAR-4): 22.9 µM (inactive) | GI50 (HOP-62): 8.75 µM (inactive) | GI50 (EKVX): > 90.8 µM (inactive) | GI50 (RXF 393): 8.2 µM (inactive) | GI50 (CAKI-1): 4.26 µM (inactive) | GI50 (SW-620): 5.53 µM (inactive) | GI50 (MCF7): 11.3 µM (inactive) | GI50 (UACC-257): 3.75 µM (inactive) | GI50 (SNB-75): > 20.6 µM (inactive) | GI50 (TK-10): 5.68 µM (inactive) | GI50 (NCI-H460): 3.67 µM (inactive) | GI50 (SN12C): 36.6 µM (inactive) | GI50 (OVCAR-3): 2.21 µM (inactive) | GI50 (COLO 205): 13.1 µM (inactive) | GI50 (HOP-92): 4.06 µM (inactive) | GI50 (HT-29): 22.3 µM (inactive) | GI50 (M14): 9.4 µM (inactive) | GI50 (NCI/ADR-RES): 10.3 µM (inactive) | GI50 (MDA-N): 2.99 µM (inactive) | GI50 (HCT-15): 10.2 µM | GI50 (SK-MEL-28): > 29.6 µM (inactive)

O=C(CC1(O)C(=O)Nc2ccccc21)c1ccncc1 (configuration not stated)
GI50 (SK-MEL-5): > 100 µM (inactive) | GI50 (SK-OV-3): > 100 µM (inactive) | GI50 (UACC-62): > 100 µM (inactive) | GI50 (UO-31): > 100 µM (inactive) | GI50 (MOLT-4): > 100 µM (inactive) | GI50 (SF-295): > 100 µM (inactive) | GI50 (RPMI-8226): > 100 µM (inactive) | GI50 (NCI-H226): > 100 µM (inactive) | GI50 (A549): > 100 µM (inactive) | GI50 (M19-MEL): > 100 µM (inactive) | GI50 (NCI-H23): > 100 µM (inactive) | GI50 (SF-268): > 100 µM (inactive) | GI50 (LOX IMVI): > 100 µM (inactive) | GI50 (K562): > 100 µM (inactive) | GI50 (SNB-19): > 100 µM (inactive) | GI50 (SK-MEL-2): > 100 µM (inactive) | GI50 (OVCAR-5): > 100 µM (inactive) | GI50 (A498): > 100 µM (inactive) | GI50 (SR): > 100 µM (inactive) | GI50 (ACHN): > 100 µM (inactive) | GI50 (786-0): > 100 µM (inactive) | GI50 (U-251): > 100 µM (inactive) | GI50 (DMS-114): > 100 µM (inactive) | GI50 (NCI-H522): > 100 µM (inactive) | GI50 (HCT-116): > 100 µM (inactive) | GI50 (CCRF-CEM): > 100 µM (inactive) | GI50 (HCC 2998): > 100 µM (inactive) | GI50 (HL-60): > 100 µM (inactive) | GI50 (SF-539): > 100 µM (inactive) | GI50 (IGROV-1): > 100 µM (inactive) | GI50 (OVCAR-4): > 100 µM (inactive) | GI50 (EKVX): > 100 µM (inactive) | GI50 (KM-20L2): > 100 µM (inactive) | GI50 (RXF 393): > 100 µM (inactive) | GI50 (CAKI-1): > 100 µM (inactive) | GI50 (SW-620): > 100 µM (inactive) | GI50 (SNB-78): > 100 µM (inactive) | GI50 (SNB-75): > 100 µM (inactive) | GI50 (DLD-1): > 100 µM (inactive) | GI50 (NCI-H460): > 100 µM (inactive) | GI50 (SN12C): > 100 µM (inactive) | GI50 (COLO 205): > 100 µM (inactive) | GI50 (HOP-92): > 100 µM (inactive) | GI50 (HT-29): > 100 µM (inactive) | GI50 (M14): > 100 µM (inactive) | GI50 (LXFL 529): > 100 µM (inactive) | GI50 (DMS-273): > 100 µM (inactive) | GI50 (HCT-15): > 100 µM | GI50 (SK-MEL-28): > 100 µM (inactive)

CCC(C)C1NC(=O)C2CCCN2C(=O)C(CC(C)C)OC(=O)CCNC(=O)C(C)N(C)C(=O)C(C(C)C)N(C)C1=O (configuration not stated) (cyclo([ξLac(3-iPr)]PI[NMeV][NMeA][βAla]); configuration not given here)
GI50 (SK-MEL-5): 1.21 µM (inactive) | GI50 (MDA-MB-435): 2.43 µM (inactive) | GI50 (SK-OV-3): 20.6 µM (inactive) | GI50 (UACC-62): 2.21 µM (inactive) | GI50 (KM12): 3.44 µM (inactive) | GI50 (Malme-3M): 6.55 µM (inactive) | GI50 (UO-31): 6.84 µM (inactive) | GI50 (MOLT-4): 1.83 µM (inactive) | GI50 (MDA-MB-231): 6.24 µM (inactive) | GI50 (SF-295): 2.5 µM (inactive) | GI50 (BT-549): > 26.1 µM (inactive) | GI50 (OVCAR-8): 3.48 µM (inactive) | GI50 (RPMI-8226): 1.29 µM (inactive) | GI50 (DU-145): 4.05 µM (inactive) | GI50 (NCI-H226): > 21.5 µM (inactive) | GI50 (A549): 4.82 µM (inactive) | GI50 (NCI-H23): 9.84 µM (inactive) | GI50 (SF-268): 6 µM (inactive) | GI50 (LOX IMVI): 1.11 µM (active) | GI50 (PC-3): 1.79 µM (inactive) | GI50 (K562): 3.16 µM (inactive) | GI50 (SNB-19): 49 µM (inactive) | GI50 (SK-MEL-2): 2.42 µM (inactive) | GI50 (OVCAR-5): 4.83 µM (inactive) | GI50 (T47D): 4.68 µM (inactive) | GI50 (A498): 23.9 µM (inactive) | GI50 (SR): 0.766 µM (active) | GI50 (Hs-578T): 23.2 µM (inactive) | GI50 (ACHN): 4.58 µM (inactive) | GI50 (786-0): 2.09 µM (inactive) | GI50 (U-251): 10.3 µM (inactive) | GI50 (NCI-H522): 6.05 µM (inactive) | GI50 (HCT-116): 2.2 µM (inactive) | GI50 (CCRF-CEM): 0.736 µM (active) | GI50 (HCC 2998): 2.13 µM (inactive) | GI50 (HL-60): 0.593 µM (active) | GI50 (SF-539): 7.1 µM (inactive) | GI50 (IGROV-1): 5.83 µM (inactive) | GI50 (OVCAR-4): > 50.7 µM (inactive) | GI50 (HOP-62): 2.77 µM (inactive) | GI50 (EKVX): 10.2 µM (inactive) | GI50 (RXF 393): 3.83 µM (inactive) | GI50 (CAKI-1): 6.95 µM (inactive) | GI50 (SW-620): 3.73 µM (inactive) | GI50 (MCF7): 2.64 µM (inactive) | GI50 (UACC-257): 6.32 µM (inactive) | GI50 (SNB-75): 15.5 µM (inactive) | GI50 (TK-10): 23.2 µM (inactive) | GI50 (NCI-H460): 1.19 µM (inactive) | GI50 (SN12C): 6.84 µM (inactive) | GI50 (OVCAR-3): 6.7 µM (inactive) | GI50 (COLO 205): 3.61 µM (inactive) | GI50 (HOP-92): 17.9 µM (inactive) | GI50 (HT-29): 1.32 µM (inactive) | GI50 (M14): 1.91 µM (inactive) | GI50 (NCI/ADR-RES): 16.1 µM (inactive) | GI50 (MDA-N): 2.61 µM (inactive) | GI50 (HCT-15): 4.57 µM | GI50 (SK-MEL-28): 36.1 µM (inactive)
